Each structure is given as a SMILES string. Where only a bound is given, the exact number is not on record here.

The assay concerns the target T1, human PAH with the R408W mutation (Homo sapiens, UniProt P00439, R408W).
T1 construct: expressed in transfected cells
T1 sequence (P00439 1-452 R408W): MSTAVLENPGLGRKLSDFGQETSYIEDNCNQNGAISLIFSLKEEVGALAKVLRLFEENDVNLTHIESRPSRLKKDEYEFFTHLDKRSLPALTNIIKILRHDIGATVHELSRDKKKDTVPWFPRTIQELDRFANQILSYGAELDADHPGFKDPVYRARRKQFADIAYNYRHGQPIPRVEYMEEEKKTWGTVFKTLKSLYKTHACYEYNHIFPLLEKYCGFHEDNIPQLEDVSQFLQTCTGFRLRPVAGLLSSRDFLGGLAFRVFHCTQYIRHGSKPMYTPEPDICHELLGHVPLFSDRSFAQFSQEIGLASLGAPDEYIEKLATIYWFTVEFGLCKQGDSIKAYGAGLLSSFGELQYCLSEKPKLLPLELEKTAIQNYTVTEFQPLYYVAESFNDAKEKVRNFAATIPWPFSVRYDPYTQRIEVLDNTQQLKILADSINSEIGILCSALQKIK
As to the kind of experiment: Cell Based Phenylalanine Flux Assay.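 Note: after compound treatment, cells received sepiapterin plus isotope-labelled Phenylalanine for 4 hours, then labelled Tyrosine in the medium was quantified, 10-point 2-fold dilution series run in duplicate.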 The conditions noted are these: A375 cells expressing human R408W PAH; 24 hrs compound incubation; 13C-Tyrosine by LC-MS; average where tested multiple times; read-out: AC50.

Consider `COc1ccc2c(C(=O)N3CCc4[nH]cnc4[C@H]3c3cc4c(F)cccn4n3)cnn2c1` [Example 1696, (S)-(4-(4-fluoropyrazolo[1,5-a]pyridin-2-yl)-6,7-dihydro-1H-imidazo[4,5-c]pyridin-5(4H)-yl)(6-methoxypyrazolo[1,5-a]pyridin-3-yl)methanone], for which the AC50 (in general, the concentration giving half of the maximal activity seen) fell in the range of 500 to 1000 nM.

As to `COc1ccc2c(C(=O)N3CCc4[nH]cnc4[C@H]3c3cc4c(Cl)cccn4n3)cnn2c1` [Example 1698, (S)-(4-(4-chloropyrazolo[1,5-a]pyridin-2-yl)-6,7-dihydro-1H-imidazo[4,5-c]pyridin-5(4H)-yl)(6-methoxypyrazolo[1,5-a]pyridin-3-yl)methanone], the AC50 is less than 500 nM.

As for `COc1ccc2c(C(=O)N3CCc4[nH]cnc4[C@@H]3c3cc4c(Cl)cccn4n3)cnn2c1` [Example 1699, (R)-(4-(4-chloropyrazolo[1,5-a]pyridin-2-yl)-6,7-dihydro-1H-imidazo[4,5-c]pyridin-5(4H)-yl)(6-methoxypyrazolo[1,5-a]pyridin-3-yl)methanone], the AC50 was more than 5000 nM.

`Cn1ccc(-c2nnc(C(=O)N3CCc4[nH]cnc4[C@H]3c3cc4c(OC(F)(F)F)cccn4n3)o2)n1` [Example 1702, (S)-(5-(1-methyl-1H-pyrazol-3-yl)-1,3,4-oxadiazol-2-yl)(4-(4-(trifluoromethoxy)pyrazolo[1,5-a]pyridin-2-yl)-6,7-dihydro-1H-imidazo[4,5-c]pyridin-5(4H)-yl)methanone]: the AC50 is less than 500 nM.

Consider `O=C(c1nnc(-c2ccn(C(F)F)n2)o1)N1CCc2[nH]cnc2[C@H]1c1cc2c(OC(F)(F)F)cccn2n1` [Example 1704, (S)-(5-(1-(difluoromethyl)-1H-pyrazol-3-yl)-1,3,4-oxadiazol-2-yl)(4-(4-(trifluoromethoxy)pyrazolo[1,5-a]pyridin-2-yl)-6,7-dihydro-1H-imidazo[4,5-c]pyridin-5(4H)-yl)methanone], for which the AC50 is less than 500 nM.

Consider `O=C(c1nnc(-c2ccn(C(F)(F)F)n2)o1)N1CCc2[nH]cnc2[C@H]1c1cc2c(OC(F)(F)F)cccn2n1` [Example 1706, (S)-(4-(4-(trifluoromethoxy)pyrazolo[1,5-a]pyridin-2-yl)-6,7-dihydro-1H-imidazo[4,5-c]pyridin-5(4H)-yl)(5-(1-(trifluoromethyl)-1H-pyrazol-3-yl)-1,3,4-oxadiazol-2-yl)methanone], for which the AC50 is less than 500 nM.

As to `O=C(c1nnc(-c2ccn(C(F)(F)F)n2)o1)N1CCc2[nH]cnc2[C@@H]1c1cc2c(OC(F)(F)F)cccn2n1` [Example 1707, (R)-(4-(4-(trifluoromethoxy)pyrazolo[1,5-a]pyridin-2-yl)-6,7-dihydro-1H-imidazo[4,5-c]pyridin-5(4H)-yl)(5-(1-(trifluoromethyl)-1H-pyrazol-3-yl)-1,3,4-oxadiazol-2-yl)methanone], the AC50 is more than 5000 nM.

For the compound `O=C(c1nnc(-c2ccn(C(F)(F)F)n2)o1)N1CCc2[nH]cnc2[C@H]1c1cc2c(OC(F)F)cccn2n1` [Example 1708, (S)-(4-(4-(difluoromethoxy)pyrazolo[1,5-a]pyridin-2-yl)-6,7-dihydro-1H-imidazo[4,5-c]pyridin-5(4H)-yl)(5-(1-(trifluoromethyl)-1H-pyrazol-3-yl)-1,3,4-oxadiazol-2-yl)methanone], the AC50 is 500 to 1000 nM.

For `O=C(c1nnc(-c2ccn(C(F)(F)F)n2)o1)N1CCc2[nH]cnc2[C@@H]1c1cc2c(OC(F)F)cccn2n1` [Example 1709, (R)-(4-(4-(difluoromethoxy)pyrazolo[1,5-a]pyridin-2-yl)-6,7-dihydro-1H-imidazo[4,5-c]pyridin-5(4H)-yl)(5-(1-(trifluoromethyl)-1H-pyrazol-3-yl)-1,3,4-oxadiazol-2-yl)methanone], the AC50 is more than 5000 nM.

On to `Cc1cccn2nc([C@H]3c4nc[nH]c4CCN3c3nnc(C(F)F)o3)cc12` [Example 1710, (R)-2-(difluoromethyl)-5-(4-(4-methylpyrazolo[1,5-a]pyridin-2-yl)-6,7-dihydro-1H-imidazo[4,5-c]pyridin-5(4H)-yl)-1,3,4-oxadiazole], for which the AC50 is more than 5000 nM.

In the case of `Cc1cccn2nc([C@@H]3c4nc[nH]c4CCN3c3nnc(C(F)F)o3)cc12` [Example 1711, (S)-2-(difluoromethyl)-5-(4-(4-methylpyrazolo[1,5-a]pyridin-2-yl)-6,7-dihydro-1H-imidazo[4,5-c]pyridin-5(4H)-yl)-1,3,4-oxadiazole], the concentration at half-maximal activity (AC50) lay in the range of 500 to 1000 nM.

With `Cc1ccc2c(C(=O)N3CCc4[nH]cnc4[C@@H]3c3cc4c(C(F)F)cccn4n3)cnn2c1` [Example 1713, (R)-(4-(4-(difluoromethyl)pyrazolo[1,5-a]pyridin-2-yl)-6,7-dihydro-1H-imidazo[4,5-c]pyridin-5(4H)-yl)(6-methylpyrazolo[1,5-a]pyridin-3-yl)methanone], the AC50 was more than 5000 nM.

On to `Cc1ccc2c(C(=O)N3CCc4[nH]cnc4[C@H]3c3cc4c(Cl)cccn4n3)cnn2c1` [Example 1714, (S)-(4-(4-chloropyrazolo[1,5-a]pyridin-2-yl)-6,7-dihydro-1H-imidazo[4,5-c]pyridin-5(4H)-yl)(6-methylpyrazolo[1,5-a]pyridin-3-yl)methanone], for which the AC50 is less than 500 nM.

On to `O=C(c1cnn2cc(C3CC3)ccc12)N1CCc2[nH]cnc2[C@H]1c1cc2c(C(F)(F)F)cccn2n1` [Example 1716, (S)-(6-cyclopropylpyrazolo[1,5-a]pyridin-3-yl)(4-(4-(trifluoromethyl)pyrazolo[1,5-a]pyridin-2-yl)-6,7-dihydro-1H-imidazo[4,5-c]pyridin-5(4H)-yl)methanone], for which the AC50 is less than 500 nM.

On to `COc1ccc2c(C(=O)N3CCc4[nH]cnc4[C@H]3c3cc4cccc(C)n4n3)cnn2c1` [Example 1718, (S)-(6-methoxypyrazolo[1,5-a]pyridin-3-yl)(4-(7-methylpyrazolo[1,5-a]pyridin-2-yl)-6,7-dihydro-1H-imidazo[4,5-c]pyridin-5(4H)-yl)methanone], for which the AC50 lay in the range of 500 to 1000 nM.

`COc1ccc2c(C(=O)N3CCc4[nH]cnc4[C@@H]3c3cc4cccc(C)n4n3)cnn2c1` [Example 1719, (R)-(6-methoxypyrazolo[1,5-a]pyridin-3-yl)(4-(7-methylpyrazolo[1,5-a]pyridin-2-yl)-6,7-dihydro-1H-imidazo[4,5-c]pyridin-5(4H)-yl)methanone]: the AC50 was 1000 to 5000 nM.

For the compound `COc1ccc2c(C(=O)N3CCc4[nH]cnc4[C@H]3c3cc4cccc(F)n4n3)cnn2c1` [Example 1720, (S)-(4-(7-fluoropyrazolo[1,5-a]pyridin-2-yl)-6,7-dihydro-1H-imidazo[4,5-c]pyridin-5(4H)-yl)(6-methoxypyrazolo[1,5-a]pyridin-3-yl)methanone], the AC50 was in the range of 500 to 1000 nM.

`COc1cccn2nc([C@H]3c4nc[nH]c4CCN3C(=O)c3nnc(-c4ccn(C(F)F)n4)o3)cc12` [Example 1722, (R)-(5-(1-(difluoromethyl)-1H-pyrazol-3-yl)-1,3,4-oxadiazol-2-yl)(4-(4-methoxypyrazolo[1,5-a]pyridin-2-yl)-6,7-dihydro-1H-imidazo[4,5-c]pyridin-5(4H)-yl)methanone]: the AC50 is more than 5000 nM.

In the case of `COc1cccn2nc([C@@H]3c4nc[nH]c4CCN3C(=O)c3nnc(-c4ccn(C(F)F)n4)o3)cc12` [Example 1723, (S)-(5-(1-(difluoromethyl)-1H-pyrazol-3-yl)-1,3,4-oxadiazol-2-yl)(4-(4-methoxypyrazolo[1,5-a]pyridin-2-yl)-6,7-dihydro-1H-imidazo[4,5-c]pyridin-5(4H)-yl)methanone], the concentration at half-maximal activity (AC50) lay in the range of 500 to 1000 nM.

As to `CC(C)(F)c1nnc(C(=O)N2CCc3[nH]cnc3[C@H]2c2cc3c(OC(F)(F)F)cccn3n2)o1` [Example 1726, (S)-(5-(2-fluoropropan-2-yl)-1,3,4-oxadiazol-2-yl)(4-(4-(trifluoromethoxy)pyrazolo[1,5-a]pyridin-2-yl)-6,7-dihydro-1H-imidazo[4,5-c]pyridin-5(4H)-yl)methanone], the AC50 lay in the range of 500 to 1000 nM.

Consider `CC(C)(F)c1nnc(C(=O)N2CCc3[nH]cnc3[C@H]2c2cc3c(OC(F)F)cccn3n2)o1` [Example 1728, (S)-(4-(4-(difluoromethoxy)pyrazolo[1,5-a]pyridin-2-yl)-6,7-dihydro-1H-imidazo[4,5-c]pyridin-5(4H)-yl)(5-(2-fluoropropan-2-yl)-1,3,4-oxadiazol-2-yl)methanone], for which the AC50 lay in the range of 500 to 1000 nM.

As for `CC(C)(F)c1nnc(C(=O)N2CCc3[nH]cnc3[C@@H]2c2cc3c(OC(F)F)cccn3n2)o1` [Example 1729, (R)-(4-(4-(difluoromethoxy)pyrazolo[1,5-a]pyridin-2-yl)-6,7-dihydro-1H-imidazo[4,5-c]pyridin-5(4H)-yl)(5-(2-fluoropropan-2-yl)-1,3,4-oxadiazol-2-yl)methanone], the AC50 is more than 5000 nM.

With `O=C(c1cnn2ccccc12)N1CCc2[nH]cnc2[C@H]1c1cc2c(C(F)F)cccn2n1` [Example 1730, (S)-(4-(4-(difluoromethyl)pyrazolo[1,5-a]pyridin-2-yl)-6,7-dihydro-1H-imidazo[4,5-c]pyridin-5(4H)-yl)(pyrazolo[1,5-a]pyridin-3-yl)methanone], the AC50 is less than 500 nM.

Regarding `O=C(c1cnn2ccccc12)N1CCc2[nH]cnc2[C@@H]1c1cc2c(C(F)F)cccn2n1` [Example 1731, (R)-(4-(4-(difluoromethyl)pyrazolo[1,5-a]pyridin-2-yl)-6,7-dihydro-1H-imidazo[4,5-c]pyridin-5(4H)-yl)(pyrazolo[1,5-a]pyridin-3-yl)methanone], the AC50 was more than 5000 nM.

(Values after patent publication US20230365592A1 (Agios Pharmaceuticals, Inc., priority 2022, published 2023).)
